Data: patent US9056865B2, “Pyridine-2-derivatives as smoothened receptor modulators” (Pfizer Inc., priority 2010, dated 2015)

What was measured:
human Smo = human Smo (Homo sapiens (Human), UniProt Q99835); experiment: Smo radioligand competition binding assay
Procedure, shortened: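 Membranes from HEK293 cells expressing surface human Smo 181-781 (40 μg protein/well) incubated 2 h at room temperature with test compound and tritiated Smo antagonist (3 nM), pH 7.5 Tris buffer; filtration and scintillation counting. Non-specific binding defined with 30 μM cold antagonist; IC50 from four-parameter sigmoidal fit.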

Gli-Luc/MEF cells = experiment: Gli-Luc/MEF assay; assay type: cell-based, mouse; settings: Mus musculus, MEF; Shh-stimulated luciferase, 48 hours
Procedure, shortened: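 Shh-stimulated luciferase readout (Bright-Glo) after 48 h, 37 °C, 5% CO2, used to derive IC50 of inhibition. Gli-Luc transgenic mouse MEFs received test compounds at final […] in 3-fold dilutions, with recombinant mouse Shh added immediately at final 2 μg/mL.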

P-glycoprotein = P-glycoprotein (Homo sapiens (Human), UniProt P08183); experiment: P-glycoprotein substrate status; assay type: in vitro ADME
Sequence of P-glycoprotein (P08183 whole entry): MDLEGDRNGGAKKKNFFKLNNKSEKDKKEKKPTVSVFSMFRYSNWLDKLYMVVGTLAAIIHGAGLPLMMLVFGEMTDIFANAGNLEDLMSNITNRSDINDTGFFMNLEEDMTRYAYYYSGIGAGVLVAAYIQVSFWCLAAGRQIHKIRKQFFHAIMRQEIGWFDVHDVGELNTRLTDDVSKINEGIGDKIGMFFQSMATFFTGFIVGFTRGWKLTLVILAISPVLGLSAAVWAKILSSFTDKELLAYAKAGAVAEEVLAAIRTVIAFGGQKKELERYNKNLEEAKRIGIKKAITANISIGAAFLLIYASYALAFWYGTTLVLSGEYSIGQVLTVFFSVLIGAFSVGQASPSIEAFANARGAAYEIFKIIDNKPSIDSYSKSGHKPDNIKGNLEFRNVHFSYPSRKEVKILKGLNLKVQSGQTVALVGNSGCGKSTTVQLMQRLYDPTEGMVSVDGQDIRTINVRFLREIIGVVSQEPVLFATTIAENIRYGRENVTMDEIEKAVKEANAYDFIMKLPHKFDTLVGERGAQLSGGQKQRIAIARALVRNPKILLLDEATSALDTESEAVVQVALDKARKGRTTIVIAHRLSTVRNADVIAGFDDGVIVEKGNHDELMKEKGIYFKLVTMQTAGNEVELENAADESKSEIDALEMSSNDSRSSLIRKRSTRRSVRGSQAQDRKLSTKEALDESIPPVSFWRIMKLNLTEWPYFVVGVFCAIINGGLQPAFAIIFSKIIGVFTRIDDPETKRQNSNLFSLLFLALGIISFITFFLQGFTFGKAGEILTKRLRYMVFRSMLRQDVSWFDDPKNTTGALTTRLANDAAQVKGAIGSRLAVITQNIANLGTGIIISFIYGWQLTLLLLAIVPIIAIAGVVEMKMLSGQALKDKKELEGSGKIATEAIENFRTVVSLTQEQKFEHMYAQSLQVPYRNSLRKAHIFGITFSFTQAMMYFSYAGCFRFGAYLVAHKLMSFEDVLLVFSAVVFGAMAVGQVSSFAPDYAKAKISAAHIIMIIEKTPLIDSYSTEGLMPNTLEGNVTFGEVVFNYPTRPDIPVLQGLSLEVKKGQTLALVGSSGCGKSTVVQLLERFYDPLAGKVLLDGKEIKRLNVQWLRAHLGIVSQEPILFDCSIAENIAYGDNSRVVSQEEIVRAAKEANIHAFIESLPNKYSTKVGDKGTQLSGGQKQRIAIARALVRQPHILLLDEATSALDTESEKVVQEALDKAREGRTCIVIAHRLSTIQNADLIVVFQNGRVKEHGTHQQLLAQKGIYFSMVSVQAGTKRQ

Sequence of human Smo (Q99835 181-787): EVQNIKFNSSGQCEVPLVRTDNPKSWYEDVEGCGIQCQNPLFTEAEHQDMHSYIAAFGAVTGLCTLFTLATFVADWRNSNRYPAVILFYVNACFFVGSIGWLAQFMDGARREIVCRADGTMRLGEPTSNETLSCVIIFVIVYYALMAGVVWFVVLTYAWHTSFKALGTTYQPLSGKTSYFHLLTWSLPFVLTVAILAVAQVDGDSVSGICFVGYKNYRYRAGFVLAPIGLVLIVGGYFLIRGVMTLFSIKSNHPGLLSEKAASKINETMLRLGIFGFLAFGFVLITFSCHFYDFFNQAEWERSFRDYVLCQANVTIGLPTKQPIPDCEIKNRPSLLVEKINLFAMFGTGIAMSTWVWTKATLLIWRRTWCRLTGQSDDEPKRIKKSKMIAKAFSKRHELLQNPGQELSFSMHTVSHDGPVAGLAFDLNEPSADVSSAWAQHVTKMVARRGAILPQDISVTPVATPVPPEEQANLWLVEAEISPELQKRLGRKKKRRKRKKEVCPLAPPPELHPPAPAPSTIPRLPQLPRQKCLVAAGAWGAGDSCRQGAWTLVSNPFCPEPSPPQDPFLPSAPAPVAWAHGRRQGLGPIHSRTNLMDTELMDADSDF

**Q.** What does the source list for `Cc1cnc(-c2cc(N3CCN(C(=O)CCS(C)(=O)=O)CC3)ncc2Cl)c(C)c1` [Example A-116, 5′-chloro-3,5-dimethyl-2′-{4-[3-(methylsulfonyl)propanoyl]piperazin-1-yl}-2,4′-bipyridine]?
**A.** IC50 (human Smo): 6.8 nM; inhibition at 0.05 µM (human Smo; 0.05 μM test compound, read-out: Smo % inh. @ 0.05 μM): 101%; IC50 (Gli-Luc/MEF cells): 2.76 nM; P-glycoprotein substrate (P-glycoprotein): not a P-glycoprotein substrate
